Literature values, collected in US20120195873A1, “METHODS OF A[…] LOSS OF […]” (NESTEC S.A., priority 2009, published 2012).

How the values were obtained:
skeletal muscle [1] = conditions: animal data, exogenous 25-OH
[2] = tested on: lower extremity muscle performance; conditions: elderly; amounts bringing mean serum 25-OH Vitamin D to 66-84 nmol/L
skeletal muscle [3] = conditions: vitamin D deficient rats
type II muscle fibers = conditions: vitamin D deficient patients, pre- vs post-supplementation
[4] = 400 mg twice daily; heavy exercise, calcium loss through sweat

In the case of 25-Hydroxy Vitamin D [25-OH], the “skeletal muscle protein synthesis” value (skeletal muscle [1]) is listed as “increases skeletal muscle protein synthesis”.

In the case of vitamin D, the “lower extremity muscle performance” value [2] is listed as “improves lower extremity muscle performance”, the muscle mass (skeletal muscle [3]) is listed as “increased muscle mass” and the “rate of myofibrillar protein degradation” value (skeletal muscle [3]) is listed as “decreased rate of myofibrillar protein degradation”. For the same compound, the weight gain (skeletal muscle [3]) was “weight gain” and the “atrophy of type II muscle fibers in biopsies” value (type II muscle fibers) was “significant improvements were observed post-supplementation”.

For O=C([O-])[O-].[Ca+2] [calcium carbonate], the “offset of exercise-induced net calcium loss” value [4] is given as “sufficient to offset this loss”.
